Here are results for eleven compounds from ChEMBL document CHEMBL1201862, “PubChem BioAssay data set” (2004).

Test systems include A549; BT-549; HOP-92; HT-29; K562; LOX IMVI; M14; MOLT-4; NCI-H522; PC-3; RPMI-8226; SF-539; SK-OV-3; T47D; TK-10; UACC-257; Hs-578T; NCI-H460; RXF 393; SNB-19.
Common to all, as to assay: DTP human tumour cell line panel, 48 h

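Method: 48-hour compound exposure of cells in 96-well plates, five concentrations, linear interpolation of endpoints. Abbreviation: GI50, concentration required for 50% inhibition of growth.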 Calls of active or inactive are those of the source. Rule as the data show it: active = GI50 up to about 1.1 µM and inactive = higher.

In general, GI50 refers to the concentration at which growth is held to half of that of the control. With `COc1cccc2c1OC1c3ccccc3OCC1(O)C2` (centres undefined), the GI50 in the assay on A549, with BT-549, in the assay on HOP-92, in the assay with HT-29, in the assay with K562 and with LOX IMVI was > 100 µM (inactive) each time. Also, the GI50 in the assay on M14, in the assay on MOLT-4, in the assay with NCI-H522, in the assay with PC-3, with RPMI-8226 and with SF-539 was > 100 µM (inactive) throughout. In addition, the GI50 with SK-OV-3, in the assay on T47D, in the assay with TK-10 and in the assay with UACC-257 was > 100 µM (inactive) each time.
Regarding `COP(=O)(/C=C/c1cc(C(=O)OCc2ccccc2)n(S(=O)(=O)c2ccccc2)c1)OC`, the GI50 in the assay with A549, in the assay on BT-549, in the assay on HT-29, in the assay with Hs-578T, in the assay with K562 and in the assay on LOX IMVI was > 100 µM (inactive) throughout. In addition, the GI50 in the assay with M14, with MOLT-4, with NCI-H460, in the assay with NCI-H522, in the assay on PC-3 and in the assay with RXF 393 was > 100 µM (inactive) each time. The GI50 in the assay on SF-539, with SK-OV-3, in the assay on SNB-19, with T47D, in the assay on TK-10 and in the assay with UACC-257 was > 100 µM (inactive) throughout.
Regarding `CC(NC(=O)C(N)Cc1ccc(O)cn1)C(=O)O` (centres undefined), the GI50 with A549, in the assay with BT-549, in the assay on HOP-92, in the assay with HT-29, in the assay with Hs-578T and in the assay with K562 was > 100 µM (inactive) throughout. Besides, the GI50 in the assay with LOX IMVI, in the assay on MOLT-4, with NCI-H460, in the assay with NCI-H522, with PC-3 and in the assay on RPMI-8226 was > 100 µM (inactive) in each case. The GI50 in the assay on RXF 393, in the assay with SF-539, in the assay on SNB-19, in the assay with TK-10 and with UACC-257 was > 100 µM (inactive) each time.
Consider `COC(=O)CC[N+]1=CCC(c2ccccc2)(c2ccccc2)O1`, for which the GI50 in the assay with A549, in the assay with BT-549, in the assay with HOP-92, in the assay with HT-29, in the assay on Hs-578T and in the assay with K562 was > 100 µM (inactive) in each case. Moreover, the GI50 in the assay with M14, in the assay with MOLT-4, in the assay with NCI-H460, with NCI-H522, in the assay on PC-3 and in the assay with RXF 393 was > 100 µM (inactive) throughout. In addition, the GI50 in the assay on SF-539, in the assay on SK-OV-3, in the assay with SNB-19, in the assay with T47D, with TK-10 and in the assay on UACC-257 was > 100 µM (inactive) each time.
Regarding `CCOc1cc2c(cc1O)/C(=N\OC)C[C@@H]1[C@@H]2CC[C@]2(C)[C@@H](O)CC[C@@H]12`, the GI50 in the assay with A549 was 0.542 µM (active); in the assay with BT-549, 1.71 µM (inactive); with HOP-92, 7.64 µM (inactive); with HT-29, 3.81 µM (inactive); with Hs-578T, 0.0698 µM (active); in the assay with K562 it was 0.0596 µM (active). Further, the GI50 with LOX IMVI is 0.122 µM (active); with M14 it was 0.15 µM (active); in the assay with MOLT-4, 0.255 µM (active); in the assay with NCI-H460, 0.308 µM (active); with NCI-H522, 0.0288 µM (active); in the assay on PC-3 it was 1.39 µM (inactive). The GI50 in the assay on RPMI-8226 was 0.167 µM (active); in the assay with RXF 393, < 0.01 µM (active); with SK-OV-3 it was 0.243 µM (active); with SNB-19, 2.11 µM (inactive); in the assay on TK-10, > 32.9 µM (inactive).
As to `CCOC(=O)C1=c2[nH]c3cccc4cccc(c43)n2C(=O)CC1`, the GI50 was > 100 µM (inactive) with A549; > 100 µM (inactive) in the assay on BT-549; 30.5 µM (inactive) in the assay with HOP-92; > 100 µM (inactive) with K562; 25.4 µM (inactive) in the assay with LOX IMVI; > 100 µM (inactive) in the assay with M14. In addition, the GI50 was > 100 µM (inactive) with MOLT-4; > 100 µM (inactive) in the assay with NCI-H460; 93.8 µM (inactive) with PC-3; > 100 µM (inactive) in the assay on RPMI-8226; > 100 µM (inactive) with RXF 393; > 100 µM (inactive) in the assay on SK-OV-3. Moreover, the GI50 in the assay on SNB-19 is > 100 µM (inactive); with T47D, 22.5 µM (inactive); with TK-10, > 100 µM (inactive); in the assay with UACC-257, > 100 µM (inactive).
Turning to `Cc1ccc(S(=O)(=O)Nc2nnc(S(N)(=O)=O)s2)cc1`, the GI50 in the assay with A549, in the assay with BT-549, in the assay on HOP-92, with Hs-578T, in the assay on K562 and with LOX IMVI was > 100 µM (inactive) in each case. In addition, the GI50 in the assay on M14, in the assay on MOLT-4, in the assay with NCI-H460, in the assay on NCI-H522, in the assay on RPMI-8226 and in the assay with RXF 393 was > 100 µM (inactive) each time. For the same compound, the GI50 in the assay on SK-OV-3, in the assay on SNB-19, in the assay on T47D, in the assay with TK-10 and in the assay on UACC-257 was > 100 µM (inactive) throughout.
In the case of `O=C1CC2(CCC(O)(c3cccs3)C(C(=O)c3cccs3)C2)C(=O)c2ccccc2N1` (centres undefined), the GI50 was 95.7 µM (inactive) with A549; > 100 µM (inactive) with BT-549; > 100 µM (inactive) in the assay with HOP-92; 40.6 µM (inactive) in the assay with HT-29; > 100 µM (inactive) in the assay with Hs-578T; 40.8 µM (inactive) with K562. Besides, the GI50 in the assay on LOX IMVI was 89.3 µM (inactive); in the assay with M14, > 100 µM (inactive); in the assay with MOLT-4 it was 29 µM (inactive); in the assay on NCI-H460, 16.5 µM (inactive); in the assay with PC-3 it was 51.8 µM (inactive); in the assay on RXF 393, > 100 µM (inactive). Further, the GI50 in the assay on SF-539 was > 100 µM (inactive); in the assay with SK-OV-3, > 100 µM (inactive); in the assay on T47D, 18.2 µM (inactive); in the assay with TK-10, > 100 µM (inactive); in the assay with UACC-257, > 100 µM (inactive).
For `CCOc1ncn(-c2ccc(NC(=S)Nc3cnccn3)cc2)n1`, the GI50 in the assay on A549, with BT-549, with HOP-92, with HT-29, in the assay on Hs-578T and with K562 was > 10 µM (inactive) each time. Moreover, the GI50 in the assay on M14, with MOLT-4, with NCI-H460, in the assay on NCI-H522, in the assay with RXF 393 and with SF-539 was > 10 µM (inactive) each time. Further, the GI50 in the assay with SK-OV-3, in the assay on SNB-19, in the assay with T47D, with TK-10 and in the assay on UACC-257 was > 10 µM (inactive) each time.
Turning to `C#Cc1cc(-c2nc3ccccc3s2)ccc1N`, the GI50 is 16.3 µM (inactive) in the assay with A549; 20 µM (inactive) in the assay with BT-549; 11 µM (inactive) with HOP-92; 18 µM (inactive) in the assay with HT-29; 25.3 µM (inactive) in the assay with K562; 13.7 µM (inactive) in the assay on LOX IMVI. Also, the GI50 with M14 was 17.6 µM (inactive); with MOLT-4, 22.6 µM (inactive); in the assay on NCI-H460, 16.5 µM (inactive); in the assay on NCI-H522 it was 15.8 µM (inactive); in the assay with PC-3, 24.9 µM (inactive); in the assay with RPMI-8226 it was 25.4 µM (inactive). The GI50 was 25.8 µM (inactive) with RXF 393; 32.2 µM (inactive) in the assay with SF-539; 26.4 µM (inactive) in the assay with SK-OV-3; 20 µM (inactive) in the assay on SNB-19; 14.5 µM (inactive) in the assay with T47D; 15.1 µM (inactive) in the assay with TK-10. Moreover, in the assay with UACC-257, the GI50 was 12.6 µM (inactive).
With `COC(=O)C1C(O)C(C(=O)OC)C(C)N(C)C1C` (centres undefined), the GI50 in the assay with A549, in the assay with BT-549, in the assay on HOP-92, in the assay with HT-29, with K562 and in the assay with LOX IMVI was > 100 µM (inactive) throughout. Also, the GI50 in the assay with M14, in the assay on MOLT-4, in the assay on NCI-H460, in the assay with PC-3, in the assay with RPMI-8226 and in the assay on RXF 393 was > 100 µM (inactive) each time. The GI50 with SF-539, with SK-OV-3, with SNB-19, in the assay with TK-10 and in the assay on UACC-257 was > 100 µM (inactive) each time.
